In patent US20250176599A1, “FLAVOR COMPOSITION AND FOOD AND BEVERAGE” (TAKASAGO INTERNATIONAL CORPORATION, priority 2021, published 2025):

Legend:
[1] = Sensory evaluation of aqueous solution I containing (E)-2-nonenal 1 ppb: off-flavor intensity and masking component intensity; conditions: average panel score
Summary of the method: (§1)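 Degradation component dissolved in ion-exchanged water; nootkatone then added. Eight experienced panelists tasted each sample, rating off-flavor (0 not sensed to 4 strongly sensed) relative to the masker-free solution set at 4 and water at 0, and masker intensity on an absolute 0–4 scale.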

[2] = Sensory evaluation of aqueous solution II containing (E)-2-octenal 10 ppb: off-flavor intensity and masking component intensity; conditions: average panel score
Summary of the method: as §1

[3] = Sensory evaluation of aqueous solution III containing 1-octen-3-one 1 ppb: off-flavor intensity and masking component intensity; conditions: average panel score
Summary of the method: as §1

[4] = Sensory evaluation of aqueous solution IV containing 1,5-octadien-3-one 100 ppt: off-flavor intensity and masking component intensity; conditions: aqueous solution IV, average panel score
Summary of the method: as §1

[5] = Sensory evaluation of aqueous solution V containing 1-octen-3-ol 10 ppb: off-flavor intensity and masking component intensity; conditions: average panel score
Summary of the method: as §1

[6] = Sensory evaluation of aqueous solution VI containing 1,5-octadien-3-ol 10 ppb: off-flavor intensity and masking component intensity; conditions: aqueous solution VI, average panel score
Summary of the method: as §1

[7] = Overall conclusion of the sensory evaluation across aqueous solutions I to VI
Summary of the method: as §1

CC1CCC(C(C)C)C(OCCO)C1 (centres unmarked) [2-menthoxyethanol]
Masking Component Intensity ([1]; 1 ppb added): 0.5 | Off-Flavor Intensity ([1]; 1 ppb added): 3.4 | Masking Component Intensity ([1]; 1 ppm added): 1.6 | Off-Flavor Intensity ([1]; 1 ppm added): 2.5 | Masking Component Intensity ([1]; 10 ppb added): 0.8 | Off-Flavor Intensity ([1]; 10 ppb added): 3.0 | Masking Component Intensity ([1]; 10 ppm added): 2.3 | Off-Flavor Intensity ([1]; 10 ppm added): 1.8 | Masking Component Intensity ([1]; 50 ppm added): 3.5 | Off-Flavor Intensity ([1]; 50 ppm added): 1.4 | Masking Component Intensity ([1]; 100 ppb added): 1.3 | Off-Flavor Intensity ([1]; 100 ppb added): 2.8 | Masking Component Intensity ([1]; 100 ppm added): 3.8 | Off-Flavor Intensity ([1]; 100 ppm added): 1.0 | Masking Component Intensity ([1]; 100 ppt added): 0.3 | Off-Flavor Intensity ([1]; 100 ppt added): 3.8 | Masking Component Intensity ([2]; 1 ppb added): 0.8 | Off-Flavor Intensity ([2]; 1 ppb added): 3.3 | Masking Component Intensity ([2]; 1 ppm added): 2.0 | Off-Flavor Intensity ([2]; 1 ppm added): 2.4 | Masking Component Intensity ([2]; 10 ppb added): 1.1 | Off-Flavor Intensity ([2]; 10 ppb added): 2.9 | Masking Component Intensity ([2]; 10 ppm added): 2.6 | Off-Flavor Intensity ([2]; 10 ppm added): 2.0 | Masking Component Intensity ([2]; 50 ppm added): 3.4 | Off-Flavor Intensity ([2]; 50 ppm added): 1.5 | Masking Component Intensity ([2]; 100 ppb added): 1.6 | Off-Flavor Intensity ([2]; 100 ppb added): 2.5 | Masking Component Intensity ([2]; 100 ppm added): 3.8 | Off-Flavor Intensity ([2]; 100 ppm added): 1.3 | Masking Component Intensity ([2]; 100 ppt added): 0.5 | Off-Flavor Intensity ([2]; 100 ppt added): 3.4 | Masking Component Intensity ([3]; 1 ppb added): 0.8 | Off-Flavor Intensity ([3]; 1 ppb added): 3.1 | Masking Component Intensity ([3]; 1 ppm added): 1.9 | Off-Flavor Intensity ([3]; 1 ppm added): 2.4 | Masking Component Intensity ([3]; 10 ppb added): 1.1 | Off-Flavor Intensity ([3]; 10 ppb added): 2.9 | Masking Component Intensity ([3]; 10 ppm added): 2.5 | Off-Flavor Intensity ([3]; 10 ppm added): 2.3 | Masking Component Intensity ([3]; 50 ppm added): 3.8 | Off-Flavor Intensity ([3]; 50 ppm added): 2.0 | Masking Component Intensity ([3]; 100 ppb added): 1.8 | Off-Flavor Intensity ([3]; 100 ppb added): 2.5 | Masking Component Intensity ([3]; 100 ppm added): 3.9 | Off-Flavor Intensity ([3]; 100 ppm added): 2.0 | Masking Component Intensity ([3]; 100 ppt added): 0.6 | Off-Flavor Intensity ([3]; 100 ppt added): 3.3 | Masking Component Intensity ([4]; 1 ppb added): 0.5 | Off-Flavor Intensity ([4]; 1 ppb added): 3.4 | Masking Component Intensity ([4]; 1 ppm added): 2.3 | Off-Flavor Intensity ([4]; 1 ppm added): 2.4 | Masking Component Intensity ([4]; 10 ppb added): 1.0 | Off-Flavor Intensity ([4]; 10 ppb added): 3.0 | Masking Component Intensity ([4]; 10 ppm added): 2.6 | Off-Flavor Intensity ([4]; 10 ppm added): 2.3 | Masking Component Intensity ([4]; 50 ppm added): 3.4 | Off-Flavor Intensity ([4]; 50 ppm added): 1.9 | Masking Component Intensity ([4]; 100 ppb added): 1.6 | Off-Flavor Intensity ([4]; 100 ppb added): 2.5 | Masking Component Intensity ([4]; 100 ppm added): 3.9 | Off-Flavor Intensity ([4]; 100 ppm added): 1.8 | Masking Component Intensity ([4]; 100 ppt added): 0.1 | Off-Flavor Intensity ([4]; 100 ppt added): 3.5 | Masking Component Intensity ([5]; 1 ppb added): 0.4 | Off-Flavor Intensity ([5]; 1 ppb added): 3.1 | Masking Component Intensity ([5]; 1 ppm added): 1.8 | Off-Flavor Intensity ([5]; 1 ppm added): 2.3 | Masking Component Intensity ([5]; 10 ppb added): 0.5 | Off-Flavor Intensity ([5]; 10 ppb added): 2.6 | Masking Component Intensity ([5]; 10 ppm added): 2.6 | Off-Flavor Intensity ([5]; 10 ppm added): 2.3 | Masking Component Intensity ([5]; 50 ppm added): 3.5 | Off-Flavor Intensity ([5]; 50 ppm added): 1.8 | Masking Component Intensity ([5]; 100 ppb added): 1.4 | Off-Flavor Intensity ([5]; 100 ppb added): 2.5 | Masking Component Intensity ([5]; 100 ppm added): 3.8 | Off-Flavor Intensity ([5]; 100 ppm added): 1.6 | Masking Component Intensity ([5]; 100 ppt added): 0.1 | Off-Flavor Intensity ([5]; 100 ppt added): 3.3 | Masking Component Intensity ([6]; 1 ppb added): 0.6 | Off-Flavor Intensity ([6]; 1 ppb added): 3.3 | Masking Component Intensity ([6]; 1 ppm added): 2.0 | Off-Flavor Intensity ([6]; 1 ppm added): 2.0 | Masking Component Intensity ([6]; 10 ppb added): 1.0 | Off-Flavor Intensity ([6]; 10 ppb added): 2.8 | Masking Component Intensity ([6]; 10 ppm added): 2.5 | Off-Flavor Intensity ([6]; 10 ppm added): 1.9 | Masking Component Intensity ([6]; 50 ppm added): 3.8 | Off-Flavor Intensity ([6]; 50 ppm added): 1.5 | Masking Component Intensity ([6]; 100 ppb added): 1.8 | Off-Flavor Intensity ([6]; 100 ppb added): 2.6 | Masking Component Intensity ([6]; 100 ppm added): 4.0 | Off-Flavor Intensity ([6]; 100 ppm added): 1.3 | Masking Component Intensity ([6]; 100 ppt added): 0.3 | Off-Flavor Intensity ([6]; 100 ppt added): 3.4 | concentration that masks the off-flavor and does not affect the flavor of the food and/or beverage itself, lower limit [7]: ≥ 10 ppb | concentration that masks the off-flavor and does not affect the flavor of the food and/or beverage itself, upper limit [7]: ≤ 10 ppm
